This is an account of results in PubChem BioAssay AID248 (DTP/NCI, 2004).

Inconclusive results and toxic doses are left out.

The experiment concerns L1210 leukemia ip in BDF1 mice, survival T/C. Put plainly: NCI In Vivo Anticancer Drug Screen. Data for tumor model L1210 Leukemia (intraperitoneal) in B6D2F1 (BDF1) mice. Conditions: endpoint: mean survival time, higher = longer survival. The essentials: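 Value reflects the ratio of survival in compound-treated mice to survival in vehicle-treated controls, with both groups carrying the same transplanted tumor.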

Where [1] appears, read: dose: 75.0 mg/kg/injection, schedule: Q01DX001 (ip), vehicle: saline.
The mark [2] stands for this setting: dose: 150.0 mg/kg/injection, schedule: Q01DX001 (ip), vehicle: saline.
[3] abbreviates: dose: 100.0 mg/kg/injection, schedule: Q04DX002 (ip), vehicle: Klucel (hydroxypropylcellulose) (HPC).
The mark [4] stands for this setting: dose: 200.0 mg/kg/injection, schedule: Q04DX002 (ip), vehicle: Klucel (hydroxypropylcellulose) (HPC).
The mark [5] stands for this setting: dose: 400.0 mg/kg/injection, schedule: Q04DX002 (ip), vehicle: Klucel (hydroxypropylcellulose) (HPC).
Where [6] appears, read: dose: 100.0 mg/kg/injection, schedule: Q01DX009 (ip), vehicle: saline with Tween-80.
Setting [7] is: dose: 100.0 mg/kg/injection, schedule: Q04DX003 (ip), vehicle: saline.
The mark [8] stands for this setting: dose: 200.0 mg/kg/injection, schedule: Q04DX003 (ip), vehicle: saline.
Where [9] appears, read: dose: 50.0 mg/kg/injection, schedule: Q04DX002 (ip), vehicle: saline with Tween-80.
Where [10] appears, read: dose: 100.0 mg/kg/injection, schedule: Q04DX003 (ip), vehicle: saline with Tween-80.
Setting [11] is: dose: 200.0 mg/kg/injection, schedule: Q04DX003 (ip), vehicle: saline with Tween-80.
Where [12] appears, read: dose: 400.0 mg/kg/injection, schedule: Q04DX003 (ip), vehicle: saline with Tween-80.
The mark [13] stands for this setting: dose: 100.0 mg/kg/injection, schedule: Q04DX002 (ip), vehicle: saline with Tween-80.
Where [14] appears, read: dose: 200.0 mg/kg/injection, schedule: Q04DX002 (ip), vehicle: saline with Tween-80.

`CC(C)OC(=O)c1cc(O)c(O)c(O)c1`: the T/C by setting is: under setting [1], 102 % of control; under setting [2], 94 % of control; (dose: 300.0 mg/kg/injection, schedule: Q01DX001 (ip), vehicle: saline) 94 % of control.
With `O=C(/C=C/c1ccccc1)C1CC1`, the T/C runs as follows: (dose: 100.0 mg/kg/injection, schedule: Q04DX003 (ip), vehicle: other) 101 % of control; (dose: 200.0 mg/kg/injection, schedule: Q04DX003 (ip), vehicle: other) 98 % of control; (dose: 400.0 mg/kg/injection, schedule: Q04DX003 (ip), vehicle: other) 98 % of control.
As for `CC(C)N(CCO)CC1C(c2ccccc2)C1c1ccccc1` (stereo unspecified), the T/C is, setting by setting: (dose: 25.0 mg/kg/injection, schedule: Q04DX002 (ip), vehicle: Klucel (hydroxypropylcellulose) (HPC)) 97 % of control; (dose: 50.0 mg/kg/injection, schedule: Q04DX002 (ip), vehicle: Klucel (hydroxypropylcellulose) (HPC)) 100 % of control; under setting [3], 97 % of control.
On to `C=C(C)C1(CCCCC)C(=O)NC(=O)NC1=O`, for which the T/C by setting is: under setting [1], 101 % of control; under setting [2], 98 % of control.
With `CC(C)OC(=S)SCC(=O)c1ccc(-c2ccccc2)cc1`, the T/C under setting [3] was 96 % of control, the T/C under setting [4] is 92 % of control and the T/C under setting [5] was 96 % of control.
Consider `CCOc1cccc(OC(C)=O)c1`, for which the T/C (dose: 75.0 mg/kg/injection, schedule: Q01DX001 (ip), vehicle: carboxymethylcellulose (CMC)) is 103 % of control and the T/C (dose: 150.0 mg/kg/injection, schedule: Q01DX001 (ip), vehicle: carboxymethylcellulose (CMC)) was 90 % of control.
With `NS(=O)(=O)c1ccc(N2CCCCC2)c([N+](=O)[O-])c1`, the T/C (dose: 100.0 mg/kg/injection, schedule: Q01DX005 (ip), vehicle: other) was 105 % of control; the T/C (dose: 200.0 mg/kg/injection, schedule: Q01DX005 (ip), vehicle: other) is 94 % of control; the T/C (dose: 400.0 mg/kg/injection, schedule: Q01DX005 (ip), vehicle: other) was 108 % of control.
For `COc1ccc2c(c1)CCC1C2=CC(=O)/C1=C\[O-].COc1ccc2c(c1)CCC1C2=CC(=O)/C1=C\[O-].[Cu+2]` (stereo unspecified), the T/C by setting is: (dose: 50.0 mg/kg/injection, schedule: Q01DX009 (ip), vehicle: saline with Tween-80) 97 % of control; under setting [6], 104 % of control; under setting [7], 92 % of control; under setting [8], 94 % of control.
Take `NCC(Cc1ccc(O)cc1)P(=O)(O)O` (stereo unspecified): the T/C by setting is: under setting [7], 100 % of control; under setting [8], 95 % of control; (dose: 400.0 mg/kg/injection, schedule: Q04DX003 (ip), vehicle: saline) 92 % of control.
Regarding `c1ccc(CC(CNCC2C(c3ccccc3)C2c2ccccc2)c2ccccc2)cc1` (stereo unspecified), the T/C reads like this: (dose: 12.5 mg/kg/injection, schedule: Q04DX002 (ip), vehicle: saline with Tween-80) 96 % of control; (dose: 25.0 mg/kg/injection, schedule: Q04DX002 (ip), vehicle: saline with Tween-80) 93 % of control; under setting [9], 90 % of control.
For `COc1ccc(Nc2nc(N)nc(CNc3ccc(Cl)cc3)n2)cc1`, the T/C runs as follows: under setting [10], 98 % of control; under setting [11], 103 % of control; under setting [12], 98 % of control.
`CCOc1ccc(/C=N/NC(=O)c2ccc(N=NN(C)C)cc2)cc1`: the T/C was 94 % of control (dose: 75.0 mg/kg/injection, schedule: Q04DX003 (ip), vehicle: Klucel (hydroxypropylcellulose) (HPC)); 90 % of control (dose: 150.0 mg/kg/injection, schedule: Q04DX003 (ip), vehicle: Klucel (hydroxypropylcellulose) (HPC)); 87 % of control (dose: 300.0 mg/kg/injection, schedule: Q04DX003 (ip), vehicle: Klucel (hydroxypropylcellulose) (HPC)).
As to `Cc1ccc(S(=O)(=O)OC2C(=O)C(C)(C)CCC2(C)C)cc1` (stereo unspecified), the T/C is 100 % of control under setting [3], 100 % of control under setting [4] and 97 % of control under setting [5].
As for `C[N+]1=C2CCCCC2=C(N)CC1`, the T/C runs as follows: (dose: 6.25 mg/kg/injection, schedule: Q01DX009 (ip), vehicle: saline sonified) 106 % of control; (dose: 12.5 mg/kg/injection, schedule: Q01DX009 (ip), vehicle: saline sonified) 92 % of control; (dose: 25.0 mg/kg/injection, schedule: Q01DX009 (ip), vehicle: saline sonified) 92 % of control.
For `CC12CC3(C)CC(Cl)(C1)CC(Cl)(C2)C3`, the T/C under setting [3] is 90 % of control, the T/C under setting [4] was 102 % of control and the T/C under setting [5] was 119 % of control.
As for `CSc1nncc(-c2ccccc2)n1`, the T/C is 97 % of control (dose: 25.0 mg/kg/injection, schedule: Q04DX003 (ip), vehicle: Klucel (hydroxypropylcellulose) (HPC)); 96 % of control (dose: 50.0 mg/kg/injection, schedule: Q04DX003 (ip), vehicle: Klucel (hydroxypropylcellulose) (HPC)); 100 % of control (dose: 100.0 mg/kg/injection, schedule: Q01DX001 (ip), vehicle: Klucel (hydroxypropylcellulose) (HPC)); 102 % of control (dose: 100.0 mg/kg/injection, schedule: Q04DX003 (ip), vehicle: Klucel (hydroxypropylcellulose) (HPC)).
Take `O=[N+]([O-])c1ccc(N/N=C\c2ccc(OCc3ccccc3)cc2)c([N+](=O)[O-])c1`: the T/C (dose: 100.0 mg/kg/injection, schedule: Q01DX001 (ip), vehicle: other) is 86 % of control.
On to `Cc1nc(N)[nH]c(=O)c1CCCNC(=O)c1ccc(CBr)cc1`, for which the T/C runs as follows: (dose: 25.0 mg/kg/injection, schedule: Q01DX001 (ip), vehicle: saline with Tween-80) 95 % of control; (dose: 50.0 mg/kg/injection, schedule: Q01DX001 (ip), vehicle: saline with Tween-80) 88 % of control; (dose: 100.0 mg/kg/injection, schedule: Q01DX001 (ip), vehicle: saline with Tween-80) 97 % of control.
Consider `NC(N)=N/N=C(\C=N\N=C(N)N)c1ccc(CCc2ccc(C(/C=N/N=C(N)N)=N\N=C(N)N)cc2)cc1`, for which the T/C was 98 % of control (dose: 1.56 mg/kg/injection, schedule: Q04DX003 (ip), vehicle: saline) and 103 % of control (dose: 3.12 mg/kg/injection, schedule: Q04DX003 (ip), vehicle: saline).
Take `CCOC(=O)C(N)CSCc1ccccc1` (stereo unspecified): the T/C was 97 % of control under setting [6]; 92 % of control (dose: 200.0 mg/kg/injection, schedule: Q01DX009 (ip), vehicle: saline with Tween-80); 97 % of control (dose: 400.0 mg/kg/injection, schedule: Q01DX009 (ip), vehicle: saline with Tween-80).
For the molecule `COc1ccc(C(=O)Nc2ccc(Br)cc2)cc1`, the T/C is 97 % of control under setting [10], 95 % of control under setting [11] and 105 % of control under setting [12].
For the molecule `O=C1C=CC(=O)c2c1ccc1c2[nH]c2ccccc21`, the T/C is 113 % of control under setting [13] and 90 % of control under setting [14].
With `Cc1csc2nccc(Cl)c12`, the T/C is 98 % of control under setting [9] and 91 % of control under setting [13].
Take `CC[C@@H](C(=O)[C@@H](C)[C@@H](O)[C@H](C)CCc1ccc(C)c(O)c1C(=O)O)[C@H]1O[C@](CC)([C@H]2CC[C@](O)(CC)[C@H](C)O2)C[C@@H]1C`: the T/C was 93 % of control (dose: 3.12 mg/kg/injection, schedule: Q01DX009 (ip), vehicle: Klucel (hydroxypropylcellulose) (HPC)); 96 % of control (dose: 6.25 mg/kg/injection, schedule: Q01DX009 (ip), vehicle: Klucel (hydroxypropylcellulose) (HPC)); 94 % of control (dose: 12.5 mg/kg/injection, schedule: Q01DX009 (ip), vehicle: Klucel (hydroxypropylcellulose) (HPC)); 94 % of control (dose: 25.0 mg/kg/injection, schedule: Q01DX009 (ip), vehicle: Klucel (hydroxypropylcellulose) (HPC)).
As to `O=N[C@@H]1CCC[C@H](Cl)C1`, the T/C under setting [10] is 95 % of control, the T/C under setting [11] is 98 % of control and the T/C under setting [12] was 95 % of control.
As for `C1CCC2OCOCC2C1` (stereo unspecified), the T/C under setting [13] is 93 % of control; the T/C under setting [14] is 90 % of control; the T/C (dose: 400.0 mg/kg/injection, schedule: Q04DX002 (ip), vehicle: saline with Tween-80) is 93 % of control.
Regarding `O=Cc1cc(Cl)cc(Cl)c1OC(=O)c1ccccc1`, the T/C was 97 % of control (dose: 100.0 mg/kg/injection, schedule: Q01DX009 (ip), vehicle: Klucel (hydroxypropylcellulose) (HPC)) and 92 % of control (dose: 200.0 mg/kg/injection, schedule: Q01DX009 (ip), vehicle: Klucel (hydroxypropylcellulose) (HPC)).
